pIC50: −log10 of the molar value.
Molecular target: HDM2 protein (Homo sapiens, UniProt Q00987)
Assay: fluorescence polarization screening assay (FP IC50)
Format: binding
Conditions: class symbols
Protocol: The compounds were evaluated to determine activity at the HDM2 protein by known methods such as the fluorescence polarization screening assay that measures the inhibitory concentration that achieves 50% of maximal activity (FP IC50) and the dissociation constant for inhibitor binding (FP Ki). [Zhang et al., J. Analytical Biochemistry 331: 138-146 (2004)].

Sequence of HDM2 protein (Q00987 whole entry): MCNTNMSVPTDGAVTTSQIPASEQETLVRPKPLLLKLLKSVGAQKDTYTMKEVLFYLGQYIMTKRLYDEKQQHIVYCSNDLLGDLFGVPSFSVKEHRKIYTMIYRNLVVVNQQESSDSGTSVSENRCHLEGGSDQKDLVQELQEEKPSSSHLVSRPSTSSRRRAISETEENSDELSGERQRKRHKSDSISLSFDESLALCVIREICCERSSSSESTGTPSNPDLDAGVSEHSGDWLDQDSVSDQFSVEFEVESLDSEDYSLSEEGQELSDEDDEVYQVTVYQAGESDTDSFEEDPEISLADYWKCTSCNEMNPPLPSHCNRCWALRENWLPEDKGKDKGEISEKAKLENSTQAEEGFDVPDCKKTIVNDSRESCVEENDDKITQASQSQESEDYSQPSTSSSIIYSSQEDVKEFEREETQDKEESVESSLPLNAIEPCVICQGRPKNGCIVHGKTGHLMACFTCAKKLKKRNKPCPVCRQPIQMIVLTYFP

Row | SMILES | pIC50
1 | CCC[C@H]1N(C(=O)c2ncccc2C(F)(F)F)CCC[C@@]1(Oc1csc(C(F)(F)F)c1)C(=O)N1CCc2cc(Cl)ccc2C1CC(C)(C)C(=O)O (stereo partly drawn) [Compound A65, 3-(6-chloro-2-{[(2R,3S)-2-propyl-1-{[3-(trifluoromethyl)pyridin-2-yl]carbonyl}-3-{[5-(trifluoromethyl)thiophen-3-yl]oxy}piperidin-3-yl]carbonyl}-1,2,3,4-tetrahydroisoquinolin-1-yl)-2,2-dimethylpropanoic acid] | 7.00 to 9.00
2 | CCC[C@H]1N(C(=O)c2ncccc2C(F)(F)F)CCC[C@@]1(Oc1csc(C(F)(F)F)c1)C(=O)N1CCc2ccsc2C1CC(C)(C)C(=O)O (stereo partly drawn) [Compound A29, 2,2-dimethyl-3-(6-{[(2R,3S)-2-propyl-1-{[3-(trifluoromethyl)pyridin-2-yl]carbonyl}-3-{[5-(trifluoromethyl)thiophen-3-yl]oxy}piperidin-3-yl]carbonyl}-4,5,6,7-tetrahydrothieno[2,3-c]pyridin-7-yl)propanoic acid] | 7.00 to 9.00
3 | COCC1c2ccc(Cl)cc2CCN1C(=O)[C@]1(Oc2csc(C(F)(F)F)c2)CCCN(C(=O)c2ncccc2C(F)(F)F)[C@@H]1CCN1CCCC1 (stereo partly drawn) [Compound A16, 6-chloro-1-(methoxymethyl)-2-{[(2R,3S)-2-(2-pyrrolidin-1-ylethyl)-1-{[3-(trifluoromethyl)pyridin-2-yl]carbonyl}-3-{[5-(trifluoromethyl)thiophen-3-yl]oxy}piperidin-3-yl]carbonyl}-1,2,3,4-tetrahydroisoquinoline] | 7.00 to 9.00
4 | CCC[C@H]1N(C(=O)c2ncccc2C(F)(F)F)CCC[C@@]1(Oc1csc(C(F)(F)F)c1)C(=O)N1CCc2cc(Cl)ccc2C1CC(C)(C)C#N (stereo partly drawn) [Compound A71, 3-(6-chloro-2-{[(2R,3S)-2-propyl-1-{[3-(trifluoromethyl)pyridin-2-yl]carbonyl}-3-{[5-(trifluoromethyl)thiophen-3-yl]oxy}piperidin-3-yl]carbonyl}-1,2,3,4-tetrahydroisoquinolin-1-yl)-2,2-dimethylpropanenitrile] | 4.70 to 7.00
5 | CCC[C@H]1N(C(=O)c2ncccc2C(F)(F)F)CCC[C@@]1(Oc1csc(C(F)(F)F)c1)C(=O)N1CCc2cc(Cl)ccc2C1CC(C)(C)C(=O)NS(C)(=O)=O (single isomer, unassigned) [Compound A68] | 7.00 to 9.00
6 | CCC[C@H]1N(C(=O)c2ncccc2C(F)(F)F)CCC[C@@]1(Oc1csc(C(F)(F)F)c1)C(=O)N1CCc2cc(Cl)ccc2C1CC(=O)N1CCNC(=O)C1 (stereo partly drawn) [Compound A84, 4-[(6-chloro-2-{[(2R,3S)-2-propyl-1-{[3-(trifluoromethyl)pyridin-2-yl]carbonyl}-3-{[5-(trifluoromethyl)thiophen-3-yl]oxy}piperidin-3-yl]carbonyl}-1,2,3,4-tetrahydroisoquinolin-1-yl)acetyl]piperazin-2-one] | 7.00 to 9.00
7 | CCC[C@H]1N(C(=O)c2ncccc2C(F)(F)F)CCC[C@@]1(Oc1csc(C(F)(F)F)c1)C(=O)N1CCc2cc(Cl)ccc2C1CC(C)(C)C(=O)O (stereo partly drawn) [Compound A108, 3-(6-chloro-2-{[(2R,3S)-2-propyl-1-{[3-(trifluoromethyl)pyridin-2-yl]carbonyl}-3-{[5-(trifluoromethyl)thiophen-3-yl]oxy}piperidin-3-yl]carbonyl}-1,2,3,4-tetrahydroisoquinolin-1-yl)-2,2-dimethylpropanoic acid] | 7.00 to 9.00
8 | CCC[C@H]1N(C(=O)c2ncccc2C(F)(F)F)CCC[C@@]1(Oc1csc(C(F)(F)F)c1)C(=O)N1CCc2cc(Cl)ccc2[C@H]1CCC(=O)N1CCC(C(=O)O)CC1 [Compound A98, 1-{3-[(1R)-6-chloro-2-{[(2R,3S)-2-propyl-1-{[3-(trifluoromethyl)pyridin-2-yl]carbonyl}-3-{[5-(trifluoromethyl)thiophen-3-yl]oxy}piperidin-3-yl]carbonyl}-1,2,3,4-tetrahydroisoquinolin-1-yl]propanoyl}piperidine-4-carboxylic acid] | 7.00 to 9.00
9 | CCC[C@H]1N(C(=O)c2ncccc2C(F)(F)F)CCC[C@@]1(Oc1csc(C(F)(F)F)c1)C(=O)N1CCc2sc(Cl)cc2C1C(=O)O (stereo partly drawn) [Compound A13, 2-chloro-5-{[(2R,3S)-2-propyl-1-{[3-(trifluoromethyl)pyridin-2-yl]carbonyl}-3-{[5-(trifluoromethyl)thiophen-3-yl]oxy}piperidin-3-yl]carbonyl}-4,5,6,7-tetrahydrothieno[3,2-c]pyridine-4-carboxylic acid] | 7.00 to 9.00
10 | O=C(c1cnccc1C(F)(F)F)N1CCC[C@@](Oc2csc(C(F)(F)F)c2)(C(=O)N2CCc3ccc(Cl)cc3C2)[C@H]1CCN1CCOCC1 [Compound A3, 7-chloro-2-{[(2R,3S)-2-(2-morpholin-4-ylethyl)-1-{[4-(trifluoromethyl)pyridin-3-yl]carbonyl}-3-{[5-(trifluoromethyl)thiophen-3-yl]oxy}piperidin-3-yl]carbonyl}-1,2,3,4-tetrahydroisoquinoline] | 4.70 to 7.00
11 | COCCN1CCN(CC[C@H]2N(C(=O)c3ncccc3C(F)(F)F)CCC[C@@]2(Oc2csc(C(F)(F)F)c2)C(=O)N2CCc3cc(Cl)ccc3C2COC)CC1 (stereo partly drawn) [Compound A21, 6-chloro-2-{[(2R,3S)-2-{2-[4-(2-methoxyethyl)piperazin-1-yl]ethyl}-1-{[3-(trifluoromethyl)pyridin-2-yl]carbonyl}-3-{[5-(trifluoromethyl)thiophen-3-yl]oxy}piperidin-3-yl]carbonyl}-1-(methoxymethyl)-1,2,3,4-tetrahydroisoquinoline] | 7.00 to 9.00
12 | CCC[C@H]1N(C(=O)c2ncccc2C(F)(F)F)CCC[C@@]1(Oc1csc(C(F)(F)F)c1)C(=O)N1CCc2sc(Cl)cc2C1CN1CCCC1 (stereo partly drawn) [Compound A35, 2-chloro-5-{[(2R,3S)-2-propyl-1-{[3-(trifluoromethyl)pyridin-2-yl]carbonyl}-3-{[5-(trifluoromethyl)thiophen-3-yl]oxy}piperidin-3-yl]carbonyl}-4-(pyrrolidin-1-ylmethyl)-4,5,6,7-tetrahydrothieno[3,2-c]pyridine] | 4.70 to 7.00
13 | CCC[C@H]1N(C(=O)c2ncccc2C(F)(F)F)CCC[C@@]1(Oc1csc(C(F)(F)F)c1)C(=O)N1CCc2cc(Cl)sc2C1CC(C)(C)C(=O)O (stereo partly drawn) [Compound A31, 3-(2-chloro-6-{[(2R,3S)-2-propyl-1-{[3-(trifluoromethyl)pyridin-2-yl]carbonyl}-3-{[5-(trifluoromethyl)thiophen-3-yl]oxy}piperidin-3-yl]carbonyl}-4,5,6,7-tetrahydrothieno[2,3-c]pyridin-7-yl)-2,2-dimethylpropanoic acid] | 7.00 to 9.00

Now from value to molecule:

Row | pIC50 | SMILES
14 | 7.00 to 9.00 | CCC[C@H]1N(C(=O)c2ncccc2C(F)(F)F)CCC[C@@]1(Oc1csc(C(F)(F)F)c1)C(=O)N1CCc2cc(Cl)ccc2C1CC(C(=O)O)C(C)C (stereo partly drawn) [Compound A179, 2-[(6-chloro-2-{[(2R,3S)-2-propyl-1-{[3-(trifluoromethyl)pyridin-2-yl]carbonyl}-3-{[5-(trifluoromethyl)thiophen-3-yl]oxy}piperidin-3-yl]carbonyl}-1,2,3,4-tetrahydroisoquinolin-1-yl)methyl]-3-methylbutanoic acid]
15 | 4.70 to 7.00 | CCC[C@H]1N(C(=O)c2cnccc2C(F)(F)F)CCC[C@@]1(Oc1csc(C(F)(F)F)c1)C(=O)N1CCc2cccc(O)c2C1 [Compound A121, 2-{[(2R,3S)-2-propyl-1-{[4-(trifluoromethyl)pyridin-3-yl]carbonyl}-3-{[5-(trifluoromethyl)thiophen-3-yl]oxy}piperidin-3-yl]carbonyl}-1,2,3,4-tetrahydroisoquinolin-8-ol]
16 | 7.00 to 9.00 | CCC[C@H]1N(C(=O)c2ncccc2C(F)(F)F)CCC[C@@]1(Oc1csc(C(F)(F)F)c1)C(=O)N1Cc2ccc(Cl)cc2C[C@@H]1CCCN1CCOCC1 [Compound A155, (3S)-6-chloro-3-(3-morpholin-4-ylpropyl)-2-{[(2R,3S)-2-propyl-1-{[3-(trifluoromethyl)pyridin-2-yl]carbonyl}-3-{[5-(trifluoromethyl)thiophen-3-yl]oxy}piperidin-3-yl]carbonyl}-1,2,3,4-tetrahydroisoquinoline]
17 | 7.00 to 9.00 | CCC[C@H]1N(C(=O)c2ncccc2C(F)(F)F)CCC[C@@]1(Oc1csc(C(F)(F)F)c1)C(=O)N1Cc2ccc(Cl)cc2C[C@@H]1CCC(=O)N(C)C [Compound A135, 3-[(3S)-6-chloro-2-{[(2R,3S)-2-propyl-1-{[3-(trifluoromethyl)pyridin-2-yl]carbonyl}-3-{[5-(trifluoromethyl)thiophen-3-yl]oxy}piperidin-3-yl]carbonyl}-1,2,3,4-tetrahydroisoquinolin-3-yl]-N,N-dimethylpropanamide]
18 | 7.00 to 9.00 | CCC[C@H]1N(C(=O)c2ncccc2C(F)(F)F)CCC[C@@]1(Oc1csc(C(F)(F)F)c1)C(=O)N1Cc2ccc(Cl)cc2C[C@@H]1C(=O)N1CCC(OC)CC1 [Compound A169, (3R)-6-chloro-3-[(4-methoxypiperidin-1-yl)carbonyl]-2-{[(2R,3S)-2-propyl-1-{[3-(trifluoromethyl)pyridin-2-yl]carbonyl}-3-{[5-(trifluoromethyl)thiophen-3-yl]oxy}piperidin-3-yl]carbonyl}-1,2,3,4-tetrahydroisoquinoline]
19 | 4.70 to 7.00 | CCC[C@H]1N(C(=O)c2cnccc2C(F)(F)F)CCC[C@@]1(Oc1csc(C(F)(F)F)c1)C(=O)N1Cc2ccccc2C[C@H]1CO [Compound A120, [(3S)-2-{[(2R,3S)-2-propyl-1-{[4-(trifluoromethyl)pyridin-3-yl]carbonyl}-3-{[5-(trifluoromethyl)thiophen-3-yl]oxy}piperidin-3-yl]carbonyl}-1,2,3,4-tetrahydroisoquinolin-3-yl]methanol]
20 | 4.70 to 7.00 | CCC[C@H]1N(C(=O)c2ncccc2C(F)(F)F)CCC[C@@]1(Oc1csc(C(F)(F)F)c1)C(=O)N1CCc2ccc(Cl)cc2C1 [Compound A139, 7-chloro-2-{[(2R,3S)-2-propyl-1-{[3-(trifluoromethyl)pyridin-2-yl]carbonyl}-3-{[5-(trifluoromethyl)thiophen-3-yl]oxy}piperidin-3-yl]carbonyl}-1,2,3,4-tetrahydroisoquinoline]

Source: patent US9062071B2, “Substituted piperidines as HDM2 inhibitors” (Merck Sharp & Dohme Corp, priority 2011, dated 2015)
